Assay type in all cases: cell-based
One assay concerns IL-8 secretion. Kind of assay: IL-8 release into supernatant of cell cultures. Conditions: TNFα; Beas2B, Calu-3 and heterologous HeLa systems (FIG. 2C). As to the method:
Cells were transiently transfected by the short IL-8 promoter-firefly luciferase reporter and renilla luciferase reference and inflammation was induced by 10 ng/ml TNFα for 1 h. A. HeLa cells were pre-treated with diluent or different doses of sulindac 1 h before inflammation induction and 4 h after. IL-8 promoter activity in cells treated with sulindac+TNFα was expressed in percent of diluent+TNFα. B. After treatment, HeLa Ctr cells were lysed with TRIzol (Invitrogen). Total RNA was extracted, and 1 μg of total RNA was reverse transcribed with a reverse transcription kit. IL-8 mRNA expression was quantified by real-time quantitative PCR (qPCR). The comparative threshold cycle (CT) method was used for relative quantification of PCR products after IL-8 was normalised to TBP (ΔCt=CtIL-8−CtTBP). IL-8 mRNA data in treated samples were expressed in fold changes over controls: fold changetreated sample=2^−ΔΔCt (with ΔΔCt=ΔCtreated sample−ΔCtcontrol). C After treatment, IL-8 in supernatant was measured by ELISA. The IL-8 stimulation of cells treated with test drug +TNFα were expressed as fold compared to drug −TNFα. […]
IL-8 secretion into the supernatant of cells cultures was measured with the IMMULITE 1000 Automated Analyser (Diagnostic Products Corp) and the commercially available Immulite chemiluminescent enzyme immunometric assays (Immulite®) according to the manufacturer's instructions.

Assay [1] concerns AP-1 transcriptional activity. Kind of assay: AP-1 firefly luciferase reporter assay, TNFα-stimulated HeLa cells. Conditions: 500 μM, TNFα 10 ng/ml. A general note: A reporter such as luciferase makes a cellular process visible.
Method: HeLa cells were transiently transfected by AP-1 firefly luciferase reporter and renilla luciferase reference. HeLa control cells were pre-treated with diluent (0.5%), ibuprofen (500 μM) or sulindac (500 μM) for 1 h and stimulated for 1 h with 10 ng/ml TNFα. After removal of TNFα, cells were incubated for 4 h with pharmacological treatment. The AP-1 transcriptional activity in cells treated with ibuprofen+TNFα and sulindac +TNFα was expressed in percent of diluent+TNFα. Results of three independent experiments, means±SEM. Unilateral paired t test: ** p<0.01. To assay the transcriptional activity of AP-1, pAP1Luc, a luciferase reporter plasmid containing five sequential AP-1 binding sites upstream of a minimum promoter element, was used. […] To normalize transfection efficiency, a renilla luciferase reporter construct (pRL-TK, Promega) was co-transfected with each of the firefly luciferase constructs. To induced AP-1 activity, cells were exposed to TNFα (10 ng/mL) for 1 hour. Cells were pre- and treated with sulindac, ibuprofen or vehicule control one hour before and four hours after this induction.
Assay [2] deals with PPAR transcriptional activity. Briefly: PPAR firefly luciferase reporter assay (3 PPRE motifs) in HeLa cells. Conditions: sulindac 100 μM, 24 h. As to the method:
HeLa control cells were transiently transfected by PPAR firefly luciferase reporter (3 PPRE motifs) and renilla luciferase reference. Cells were treated with diluent (0.5%), ibuprofen (500 μM) or sulindac (100 μM) for 24 h. The PPAR transcriptional activity in cells treated with ibuprofen and sulindac was expressed in percent of diluents. Results of three independent experiments, means±SEM. Unilateral paired t test: ** p<0.01.
To assay the transcriptional activity of AP-1, pAP1Luc, a luciferase reporter plasmid containing five sequential AP-1 binding sites upstream of a minimum promoter element, was used. Transcriptional activity of PPAR was evaluated with reporter constructs with three sequential PPRE consensus sequences, binding PPAR factors. Transient transfection were realized as described before. To normalize transfection efficiency, a renilla luciferase reporter construct (pRL-TK, Promega) was co-transfected with each of the firefly luciferase constructs. To induced AP-1 activity, cells were exposed to TNFα (10 ng/mL) for 1 hour. Cells were pre- and treated with sulindac, ibuprofen or vehicule control one hour before and four hours after this induction. For PPAR activity, cells were treated with pharmacological drugs for 24 hours.
Luciferase assay was realized as described before.

Another assay concerns the target CFTR (Homo sapiens, UniProt P13569). Briefly: CFTR maturation by Western blot of membrane extracts. On the set-up: expressed in transfected cells. The following applies: for Ratio CFTR C/C + B (%): HeLa CFTR WT, Ctr. 65.1. As to the method: B. Chloride activity in HeLa Wt cells was measured by MQAE assay, after 3 h of treatment by NSAID (500 μM) or diluent. CFTR activity was expressed in rate of UFA/sec, calculated by difference between ((Ft−F0)/t) with CFTR induction and ((Ft−F0)/t) without CFTR induction. […] C. Primary culture of human nasal epithelial cell (HNEC) grown on Snapwell filters (air-liquid interface) were exposed basolaterally to sulindac (500 μM) or vehicle for 2 h and immediately mounted into a voltage-clamp system to bioelectric measurements. Short circuit current was measured with addition of amiloride to evaluated amiloride sensitive transport or with forskolin and IBMX for induced cAMP-dependent Cl secretion.
To study the CFTR protein present at the cell membrane, a protocol of purification by differential centrifugations was used. CFTR wt and delta F508 HeLa cells (2×10^5 cells/cm^2) were lysed with hypotonic lysis buffer (10 mM de KCl, 1 mM de MgCl2, 10 mM Hepes pH 7, 4 and protease inhibitor). Mechanic lysis of cells was realized with minimum 10 strokes of a 26G syringe. Samples were centrifuged 10 min at 3000 g to eliminate cellular fragments and nuclear fraction in the pellet. Then supernatant was centrifuged 45 min at 50 000 g. The pellets with cellular membrane were resolubilized in RIPA buffer.
Aliquots of membrane cell extracts (30 μg protein) were separated by 7% SDS-PAGE and transferred on PVDF membrane. The western blots were probed with mouse monoclonal antibodies specific for CFTR (MM13-4, Millipore) 2 h at room temperature.

Sequence of CFTR (P13569 whole entry): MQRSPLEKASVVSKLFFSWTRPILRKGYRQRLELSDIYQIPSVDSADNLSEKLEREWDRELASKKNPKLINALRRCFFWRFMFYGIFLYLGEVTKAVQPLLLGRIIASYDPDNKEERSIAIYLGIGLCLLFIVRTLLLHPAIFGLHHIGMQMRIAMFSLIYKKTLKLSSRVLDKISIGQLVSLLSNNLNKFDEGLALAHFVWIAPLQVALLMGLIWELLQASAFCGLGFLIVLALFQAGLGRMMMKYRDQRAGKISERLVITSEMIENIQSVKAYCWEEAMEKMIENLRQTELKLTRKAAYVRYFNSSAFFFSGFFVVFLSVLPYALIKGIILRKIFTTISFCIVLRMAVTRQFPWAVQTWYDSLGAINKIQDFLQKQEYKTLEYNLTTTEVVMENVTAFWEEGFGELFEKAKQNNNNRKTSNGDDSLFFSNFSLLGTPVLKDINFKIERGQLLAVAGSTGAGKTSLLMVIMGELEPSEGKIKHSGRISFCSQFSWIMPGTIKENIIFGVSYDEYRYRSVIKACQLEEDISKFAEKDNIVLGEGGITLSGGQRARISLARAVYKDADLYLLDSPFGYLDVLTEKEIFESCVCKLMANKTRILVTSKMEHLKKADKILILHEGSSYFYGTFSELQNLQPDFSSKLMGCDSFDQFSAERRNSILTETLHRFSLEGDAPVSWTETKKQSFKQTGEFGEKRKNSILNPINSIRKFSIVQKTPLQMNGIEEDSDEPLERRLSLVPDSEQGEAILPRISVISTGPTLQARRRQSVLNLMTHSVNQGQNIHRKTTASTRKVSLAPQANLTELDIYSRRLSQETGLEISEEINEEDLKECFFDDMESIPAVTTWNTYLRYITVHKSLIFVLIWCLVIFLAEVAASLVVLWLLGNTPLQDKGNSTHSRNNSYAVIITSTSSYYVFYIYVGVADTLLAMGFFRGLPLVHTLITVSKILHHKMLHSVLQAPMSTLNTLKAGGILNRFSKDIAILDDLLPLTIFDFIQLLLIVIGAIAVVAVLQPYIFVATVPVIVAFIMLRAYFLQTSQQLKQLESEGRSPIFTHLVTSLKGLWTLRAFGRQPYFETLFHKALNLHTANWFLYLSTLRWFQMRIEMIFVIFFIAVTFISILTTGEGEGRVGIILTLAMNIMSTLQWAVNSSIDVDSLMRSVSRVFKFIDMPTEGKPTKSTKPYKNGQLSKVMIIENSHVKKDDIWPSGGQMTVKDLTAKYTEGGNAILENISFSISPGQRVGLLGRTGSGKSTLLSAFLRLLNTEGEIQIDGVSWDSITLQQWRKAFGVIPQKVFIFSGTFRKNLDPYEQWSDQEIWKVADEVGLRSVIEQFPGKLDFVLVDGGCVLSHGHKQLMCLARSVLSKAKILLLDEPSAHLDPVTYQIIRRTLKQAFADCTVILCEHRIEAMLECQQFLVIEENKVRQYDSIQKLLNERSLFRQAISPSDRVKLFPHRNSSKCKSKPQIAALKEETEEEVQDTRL

For `CC1=C(CC(=O)O)c2cc(F)ccc2/C1=C\c1ccc([S+](C)[O-])cc1` (stereo not drawn) [sulindac, (Z)-5-fluoro-2-methyl-1-[p-(methylsulfinyl)benzylidene]-indene-3-acetic acid], the IL-8 secretion result in the assay with IL-8 secretion was “decrease of IL-8 secretion”. For the same molecule, in assay [1], the “AP-1 transcriptional activity induced by TNF” value was “causes a decrease in the induction”. The PPAR transcriptional activity entry in assay [2] is on record as “increase in the transcriptional activity of PPAR”. Further, the “Ratio CFTR C/C + B (%)” value at CFTR (250 μM) is given as 77.7%; at CFTR (500 μM), 81.5%. In addition, the “mature form of CFTR (Western blot)” value at CFTR (WT-CFTR HeLa cells, 500 μM) is recorded as “significant increase of mature form of CFTR”.

Source of the values: patent publication US9402821B2, “Methods and pharmaceutical compositions for treatment of cystic fibrosis” (INSERM (Institut National de la sante et de la Recherche …, priority 2012, dated 2016).
